US9617256B2 (priority 2007, dated 2017)
Values after ≈ are worked out from the molar mass of the structure shown.

Experiments:
[1] = test system: APAE006 (strain of P. aeruginosa in which all efflux pumps are inactivated); assay: microbe, parasite or virus in culture; format: cell-based; settings: Pseudomonas aeruginosa, read-out: MIC APAE006, P. aeruginosa, all efflux pumps inactivated
Outline: (§1)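 Inocula prepared from 0.5 McFarland suspensions (final 3×10^5–7×10^5 CFU/mL) were added to 2-fold drug dilution series in cation-adjusted Mueller-Hinton broth. Plates stood 18-24 hours at 35° C. under ambient air.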

[2] = test system: APAE006 in the presence of 8 micrograms per milliliter of polymyxin B nonapeptide; format: cell-based, P. aeruginosa; settings: in the presence of 8 micrograms per milliliter of polymyxin B nonapeptide
Outline: as §1

[3] = test system: AABA1060 (clinical isolate of Acinetobacter baumannii); assay: MIC broth microdilution, AABA1060; format: cell-based; settings: Acinetobacter baumannii, read-out: MIC AABA1060
Outline: (§2)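 CLSI-guided microdilution: bacteria passaged overnight at 35° C. on Mueller-Hinton agar, tested in cation-adjusted broth at a final 3×10^5–7×10^5 CFU/mL across 2-fold drug dilutions, read after 18-24 h at 35° C.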

[4] = test system: AECO063 (ATCC25922 bearing an acrAB mutation); assay: microbe, parasite or virus in culture; format: cell-based, E. coli; settings: Escherichia coli, ATCC25922, read-out: MIC AECO063
Outline: as §2

AECO001 HSA AGP = assay: MIC broth microdilution, AECO001 HSA AGP; format: cell-based, E. coli; settings: Escherichia coli
Outline: as §2

AECO001 (ATCC25922) = assay: MIC broth microdilution, AECO001; format: cell-based, E. coli; settings: Escherichia coli, ATCC25922, read-out: MIC AECO001
Outline: as §2

APAE001 (ATCC27853) = assay: MIC broth microdilution, APAE001; format: cell-based, P. aeruginosa; settings: Pseudomonas aeruginosa, ATCC27853, read-out: MIC APAE001, APAE001 is ATCC27853
Outline: as §2

[5] = test system: ASAU001 (laboratory strain of S. aureus, ATCC29213); assay: MIC broth microdilution, ASAU001; format: cell-based; settings: Staphylococcus aureus, ATCC29213, read-out: MIC ASAU001
Outline: as §2

Row | SMILES | MIC [1] [µg/mL] | MIC APAE006 + PMBN [2] | MIC [3] [µg/mL] | MIC [4] [µg/mL] | MIC (AECO001 HSA AGP) [µg/mL] | MIC (AECO001 (ATCC25922)) [µg/mL] | MIC (APAE001 (ATCC27853)) [µg/mL] | MIC [5] [µg/mL]
1 | C[C@H](O)[C@H](NC(=O)c1ccc(/C=C/C#Cc2ccc(CN3CCOCC3)cc2)cc1)C(=O)NO [Example 110-5] | < 2 | A (MIC's of 2.0 μg/mL or less = A) | 2 to 16 (≈ 4.31 to 34.5 µM) | < 2 | 2 to 16 (≈ 4.31 to 34.5 µM) | < 2 | 2 to 16 (≈ 4.31 to 34.5 µM) | > 64
2 | COC(C)[C@H](NC(=O)c1ccc(/C=C/C#Cc2ccc(CN3CCOCC3)cc2)cc1)C(=O)NO (stereo partly shown) [Example 110-6] | < 2 | A (MIC's of 2.0 μg/mL or less = A) | 2 to 16 (≈ 4.19 to 33.5 µM) | < 2 | 2 to 16 (≈ 4.19 to 33.5 µM) | < 2 | 2 to 16 (≈ 4.19 to 33.5 µM) | > 64
3 | CC(C)(O)[C@H](NC(=O)c1ccc(/C=C/C#Cc2ccc(CN3CCOCC3)cc2)cc1)C(=O)NO [Example 110-7] | < 2 | A (MIC's of 2.0 μg/mL or less = A) | < 2 | < 2 | 2 to 16 (≈ 4.19 to 33.5 µM) | < 2 | 2 to 16 (≈ 4.19 to 33.5 µM) | > 64
4 | O=C(N[C@H](C(=O)NO)C1CCS(=O)(=O)CC1)c1ccc(/C=C/C#Cc2ccc(CN3CCOCC3)cc2)cc1 [Example 110-8] | < 2 | A (MIC's of 2.0 μg/mL or less = A) | 16 to 64 (≈ 29 to 116 µM) | < 2 | 16 to 64 (≈ 29 to 116 µM) | < 2 | 2 to 16 (≈ 3.63 to 29 µM) | > 64
5 | O=C(N[C@H](C(=O)NO)C1CC1)c1ccc(/C=C/C#Cc2ccc(CN3CCOCC3)cc2)cc1 [Example 110-9] | < 2 | A (MIC's of 2.0 μg/mL or less = A) | 2 to 16 (≈ 4.35 to 34.8 µM) | < 2 | 2 to 16 (≈ 4.35 to 34.8 µM) | < 2 | 2 to 16 (≈ 4.35 to 34.8 µM) | > 64
6 | O=C(N[C@@H](Cn1cncn1)C(=O)NO)c1ccc(/C=C/C#Cc2ccc(CN3CCOCC3)cc2)cc1 [Example 110-10] | < 2 | A (MIC's of 2.0 μg/mL or less = A) | 16 to 64 (≈ 32 to 128 µM) | < 2 | 2 to 16 (≈ 4 to 32 µM) | < 2 | 2 to 16 (≈ 4 to 32 µM) | 16 to 64 (≈ 32 to 128 µM)
7 | O=C(N[C@H](C(=O)NO)c1ccccc1)c1ccc(/C=C/C#Cc2ccc(CN3CCOCC3)cc2)cc1 [Example 110-11] | < 2 | A (MIC's of 2.0 μg/mL or less = A) | 16 to 64 (≈ 32.3 to 129 µM) | < 2 | 2 to 16 (≈ 4.04 to 32.3 µM) | < 2 | 16 to 64 (≈ 32.3 to 129 µM) | 16 to 64 (≈ 32.3 to 129 µM)
8 | O=C(NC(C(=O)NO)C(F)(F)F)c1ccc(/C=C/C#Cc2ccc(CN3CCOCC3)cc2)cc1 (stereo not shown) [Example 110-12] | < 2 | A (MIC's of 2.0 μg/mL or less = A) | < 2 | < 2 | < 2 | < 2 | 2 to 16 (≈ 4.1 to 32.8 µM) | 16 to 64 (≈ 32.8 to 131 µM)
9 | CN(C)CC(=O)NC[C@H](NC(=O)c1ccc(/C=C/C#Cc2ccc(CN3CCOCC3)cc2)cc1)C(=O)NO [Example 111-2] | < 2 | A (MIC's of 2.0 μg/mL or less = A) | 2 to 16 (≈ 3.75 to 30 µM) | < 2 | 2 to 16 (≈ 3.75 to 30 µM) | 2 to 16 (≈ 3.75 to 30 µM) | 2 to 16 (≈ 3.75 to 30 µM) | 16 to 64 (≈ 30 to 120 µM)
10 | CC(=O)NC[C@H](NC(=O)c1ccc(/C=C/C#Cc2ccc(CN3CCOCC3)cc2)cc1)C(=O)NO [Example 111-3, N-[2-acetylamino-1-((S)-hydroxycarbamoyl)-ethyl]-4-[(E)-4-(4-morpholin-4-ylmethyl-phenyl)-but-1-en-3-ynyl]-] | < 2 | A (MIC's of 2.0 μg/mL or less = A) | 2 to 16 (≈ 4.08 to 32.6 µM) | < 2 | 2 to 16 (≈ 4.08 to 32.6 µM) | < 2 | 2 to 16 (≈ 4.08 to 32.6 µM) | > 64
11 | C[C@@H](N)[C@H](NC(=O)c1ccc(/C=C/C#Cc2ccc(CO)cc2)cc1)C(=O)NO [Example 112-1] | < 2 | A (MIC's of 2.0 μg/mL or less = A) | 2 to 16 (≈ 5.08 to 40.7 µM) | < 2 | 16 to 64 (≈ 40.7 to 163 µM) | < 2 | < 2 | > 64
